Measurements published in patent publication US12186426B2, “Solid dosage form” (IX BIOPHARMA LTD, priority 2009, dated 2025).
Several values for one entry are separate records, joined by “and”; a condition that tells them apart may be missing. Identical values can stand only once.

Columns and labels:
[1] = Ketamine wafer safety and tolerability (Likert, Bond and Lader scales) in healthy volunteers; type: in vivo, human
Experimental: Safety assessments included scheduled adverse event (AE) probes, spontaneous AE reporting, routine laboratory investigations, 12-lead electrocardiograms (ECGs) and vital sign evaluation during a 24 hour period from start of dosing. A full physical examination was performed before the first dosing occasion and 24 hours after the second dosing occasion.
Local tolerability was assessed, by using Likert scales, at pre dose, 5, 10, 15, 30 and 45 minutes and one hour post dose administration. Modified Bond and Lader scales to assess sedation and altered perception, by using the three factors “alertness”, “contentedness” and “calmness”, were performed at pre dose, 30 minutes post dose and at hours 1, 1.5, 2, 2.5, 3, 4, 6, 8, 12, and 24 hours post dose administration.
The Bond and Lader scales comprise a total of 16 100-mm lines anchored at either end by antonyms. Participants marked their current subjective state between the antonyms on the line. Each line was scored as millimetres to the mark from the negative antonym. From the resultant scores, three measures derived by factor analysis were isolated. […]

[2] = Ketamine wafer pharmacokinetics and absolute bioavailability, crossover study in healthy volunteers; conditions: for extrapolated portion of the AUC, AUCextr: range over subjects; for time of first quantifiable plasma concentration: all subjects
[3] = type: physicochemical; conditions: pH 6.8
[4] = gmean of eight volunteers, 10 mg as 30 minute IV infusion
[5] = human, plasma, other: sublingual, 25 mg
[6] = individual subjects, 10 mg as 30 minute IV infusion
[7] = individual subjects, 25 mg SL wafer
[8] = median of eight volunteers, 25 mg SL

Structure (SMILES): CNC1(c2ccccc2Cl)CCCCC1=O (racemic) [RS ketamine, ketamine]
- Bond and Lader mood rating scales (alertness, contentedness, calmness) ([1]; 10 mg IV and 25 mg SL, 24 hr observation): no clear trends for effects
- ECG, vital signs, haematology, clinical chemistry, urinalysis ([1]; healthy volunteers): no clinically relevant changes or trends for abnormalities
- extrapolated portion of the AUC, AUCextr ([2]; IV 10 mg): 3-7%
- time of first quantifiable plasma concentration ([2]; IV dosing 10 mg): five
- extrapolated portion of the AUC, AUCextr ([2]; SL 25 mg): 2-9%
- time of first quantifiable plasma concentration ([2]; SL dosing 25 mg): five
- Cmax,I [2, 4]: 128.0 ng/mL
- VZ [2, 4]: 237 L
- MRT ([2]; human, plasma, iv, 10 mg): 3.9 h
- half-life ([2]; human, plasma, iv, 10 mg): 7 h
- AUC ([2]; human, plasma, iv, 10 mg, AUCINF__, gmean of eight volunteers, 10 mg as 30 minute IV infusion): 255 ng·h/mL
- AUC ([2]; human, plasma, iv, 10 mg, AUCINF__, individual subjects, 10 mg as 30 minute IV infusion): 255 ng·h/mL
- clearance ([2]; human, plasma, iv, 10 mg, CL, gmean of eight volunteers, 10 mg as 30 minute IV infusion): 654 mL/min
- clearance ([2]; human, plasma, iv, 10 mg, CL, individual subjects, 10 mg as 30 minute IV infusion): 655 mL/min
- Cmax ([2]; human, plasma, iv, 10 mg, Cmax,I, gmean of eight volunteers, 10 mg as 30 minute IV infusion): 128 ng/mL
- clearance ([2]; human, plasma, iv, 10 mg, Median CL, IV dosing 10 mg): 628 mL/min
- Tmax ([2]; human, plasma, iv, 10 mg, tmax,IV, individual subjects, 10 mg as 30 minute IV infusion): 0.5 h
- Tmax ([2]; human, plasma, iv, 10 mg, tmax,IV, median of eight volunteers, 10 mg as 30 minute IV infusion): 0.5 h
- MRT [2, 5]: 3.8 h
- bioavailability [2, 5]: 23 to 38%
- AUC ([2]; human, plasma, other: sublingual, 25 mg, AUCINF_, gmean of eight volunteers, 25 mg SL wafer): 185 ng·h/mL
- AUC ([2]; human, plasma, other: sublingual, 25 mg, AUCINF_, individual subjects, 25 mg SL wafer): 184 ng·h/mL
- Cmax ([2]; human, plasma, other: sublingual, 25 mg, Cmax,S, gmean of eight volunteers, 25 mg SL wafer): 71.1 ng/mL
- Tmax ([2]; human, plasma, other: sublingual, 25 mg, tmax,SL, median of eight volunteers, 25 mg SL wafer): 0.75 h
- AUCINF__ [2, 6]: 270.02 ng·h/mL and 289.22 ng·h/mL and 299.44 ng·h/mL and 261.00 ng·h/mL and 167.21 ng·h/mL and 282.73 ng·h/mL and 243.24 ng·h/mL
- CL [2, 6]: 37.03 L/h and 34.58 L/h and 33.40 L/h and 38.31 L/h and 59.81 L/h and 35.37 L/h and 41.11 L/h
- VZ [2, 6]: 283 L and 253 L and 300 L and 164 L and 385 L and 375 L and 126 L and 158 L
- t1/2,I [2, 6]: 5.0 h and 4.7 h and 6.0 h and 3.4 h and 4.3 h and 2.5 h and 2.7 h
- tmax,IV [2, 6]: 0.6 h and 0.52 h
- Cmax,I ([2]; individual subjects, 10 mg as 30 minute IV infusion, plasma): 190.2 ng/mL and 124.2 ng/mL and 120.3 ng/mL and 101.8 ng/mL and 83.18 ng/mL and 81.12 ng/mL and 226.6 ng/mL and 163.2 ng/mL
- bioavailability F ([2]; individual subjects, 25 mg SL vs 10 mg IV): 38% and 29% and 30% and 23% and 28% and 27%
- AUCINF_ [2, 7]: 203.47 ng·h/mL and 171.90 ng·h/mL and 211.33 ng·h/mL and 186.14 ng·h/mL and 161.64 ng·h/mL and 202.89 ng·h/mL and 162.52 ng·h/mL
- t1/2, [2, 7]: 3.2 h and 5.5 h and 3.5 h and 2.3 h and 4.6 h and 5.1 h and 2.9 h and 1.8 h
- tmax,SL [2, 7]: 1 h and 0.58 h and 0.25 h
- Cmax,S ([2]; individual subjects, 25 mg SL wafer, plasma): 78.77 ng/mL and 60.24 ng/mL and 50.02 ng/mL and 76.12 ng/mL and 51.79 ng/mL and 61.17 ng/mL and 88.76 ng/mL and 128.2 ng/mL
- mean absorption time MAT ([2]; individual subjects, 25 mg SL, MRTSL−MRTIV): −1.1 hr (2×) and 0.86 hr and −0.56 hr and 0.20 hr and 0.64 hr and 1.1 hr and −0.83 hr
- t1/2,I ([2]; median of eight volunteers, 10 mg as 30 minute IV infusion): 4.5 h
- bioavailability F [2, 8]: 29 [27, 31] %
- mean absorption time MAT [2, 8]: -0.18 h
- t1/2, ([2]; median of eight volunteers, 25 mg SL wafer): 3.4 h
- mean absorption time MAT, Min-Max ([2]; minimum and maximum of eight volunteers, 25 mg SL): -1.1 to 1.1 h

Structure (SMILES): Cc1ncc2n1-c1ccc(Cl)cc1C(c1ccccc1F)=NC2 [midazolam powder, midazolam]
- dissolution rate compared with wafer [3]: considerably slower
